According to US4761414A, “Substituted 1H-pyrimido[1,2-a-]-pyrido[3,4-e]pyrazine 6 oxides” (G. D. Searle & Co., priority 1986, dated 1988):
≈ marks a conversion by molar mass, not a printed value. Where two headings read alike, the source gives them in different places.

Assays:
[1] = system: Campylobacter fetus ss. jejuni ATCC 29428; assay: MIC vs panel of anaerobes; assay type: cell-based; settings: ATCC29428, procedures of Example 40
[2] = system: B. fragilis MZ-R ATCC 11295; assay: MIC/MBC against Bacteroides fragilis strain D; assay type: cell-based; settings: for MBC: ATCC11295, 99.9% reduction in viable count; for MIC: ATCC11295, 48 h, 48 hours, 37° C., anaerobic
Procedure: (§1) The screening panel utilized in this Example consisted of 5 strains of Bacteroides fragilis. All assays were carried out in 96-well microtitre plates. If an isolate was obtained from either a culture collection or clinical source, the isolate was immediately inoculated into Wilkens-Chalgren broth (Oxoid) and incubated at 37° C. in an anaerobic chamber in an atmosphere of 85% nitrogen, 10% carbon dioxide, and 5% hydrogen for 48 hours. At the end of this time, the viable count was about 10^12 organisms/ml broth. A 1 ml aliquot of each culture was placed in an ampoule and quick frozen in acetone-dry ice mixture and stored in liquid nitrogen. When an inoculum was utilized in an assay, one of the ampoules was thawed and diluted with fresh broth to yield a suspension having a count of 5×10^5 organisms/ml. A 100 μl aliquot of this suspension was inoculated into each well of the microtitre plate. A 2 mg sample of the test compound was dissolved in 0.2 ml of a suitable solvent such as dimethylsulfoxide, polyethylene glycol 200 or methanol. […] After addition of the test solution the final inoculum level was 10^5 cells/ml. The plates were incubated for 48 hours at 37° C. in the anaerobic chamber. The Minimum Inhibitory Concentration (MIC) was read visually. The MIC is defined as the lowest concentration at which there is no detectable growth. The Minimum Bactericidal Concentration (MBC) was determined by taking 50 μl aliquot from each well and placing it in fresh medium.

[3] = system: P. anaerobius; assay: MIC vs panel of anaerobes; assay type: cell-based; settings: Peptostreptococcus anaerobius, procedures of Example 40
[4] = system: Clostridium perfringens NCTC 523; assay: microbe, parasite or virus in culture; assay type: cell-based; settings: Clostridium perfringens, NCTC523, Clostridium perfringens NCTC 523; procedures of Example 40
[5] = system: B. melanogenicus ATCC 15032; assay: MIC vs panel of anaerobes; assay type: cell-based; settings: procedures of Example 40
[6] = system: B. fragilis NCTC 9344; assay: MIC/MBC against Bacteroides fragilis strain C; assay type: cell-based; settings: for MBC: NCTC9344, 99.9% reduction in viable count; for MIC: NCTC9344, 48 h, 48 hours, 37° C., anaerobic
Procedure: as §1, with “medium. […] The strains of Bacteroides fragilis utilized in the above procedure are identified by letter in accordance with the following legend: |C B. fragilis NCTC 9344” for “medium.”

[7] = system: Clostridium perfringens NCTC 8237; assay: microbe, parasite or virus in culture; assay type: cell-based; settings: Clostridium perfringens, NCTC8237, Clostridium perfringens NCTC 8237; procedures of Example 40
[8] = system: Propionebacterium acnes NCTC 737; assay: MIC vs panel of anaerobes; assay type: cell-based; settings: procedures of Example 40
[9] = system: B. fragilis 23745; settings: Bacteroides fragilis, 23745, in Mus musculus, po, 48 h, log CFU/ml liver homogenate, test compound
[10] = system: Peptococcous magnus; assay: MIC vs panel of anaerobes; assay type: cell-based; settings: procedures of Example 40
[11] = read-out: DOSE GIVING 1 LOG REDUCTION (molar), p.o., after infection and twice daily for 2 days
[12] = read-out: DOSE GIVING 1 LOG REDUCTION, p.o., after infection and twice daily for 2 days

SMILES	MIC [1] [µg/mL]	MBC [2] [µg/mL]	MIC [2] [µg/mL]	MIC [3] [µg/mL]	MIC [4] [µg/mL]	MIC [5] [µg/mL]	MBC [6] [µg/mL]	MIC [6] [µg/mL]	MIC [7] [µg/mL]	MIC [8] [µg/mL]	ED (1 log reduction) [9, 11] [µmol/kg]	ED (1 log reduction) [9, 12] [mg/kg]	MIC [10] [µg/mL]
CCC1(CC)CN=C2C(c3ccccc3)=[N+]([O-])c3cccnc3N2C1 [Example 26, 2,3-Dihydro-2,2-diethyl-5-phenyl-1H-pyrimido[1,2-a]pyrido[3,2-e]pyrazine 6-oxide]	50 (≈ 150 µM)	< 0.8	< 0.8	50 (≈ 150 µM)	1.5 (≈ 4.49 µM)	100 (≈ 299 µM)	< 0.8	< 0.8	1.5 (≈ 4.49 µM)	100 (≈ 299 µM)	10.1	3.4	12.5 (≈ 37.4 µM)
CCC1(CC)CN=C2C(c3ccccc3)=[N+]([O-])c3cnccc3N2C1 [Example 25, 2,3-Dihydro-2,2-diethyl-5-phenyl-1H-pyrimido[1,2-a]pyrido[3,4-e]pyrazine 6-oxide]	100 (≈ 299 µM)	1.5 (≈ 4.49 µM)	1.5 (≈ 4.49 µM)	100 (≈ 299 µM)	3.1 (≈ 9.27 µM)	> 100	1.5 (≈ 4.49 µM)	1.5 (≈ 4.49 µM)	3.1 (≈ 9.27 µM)	> 100	5.75	1.9	100 (≈ 299 µM)
[O-][N+]1=C(c2ccccc2)C2=NCC3(CCCCC3)CN2c2ncccc21 [Example 29, Spiro[cyclohexane-1,2'-[2,3]-dihydro-[5]-phenyl-[1H]pyrimido[1,2-a]pyrido[3,2-e]pyrazine [6]-oxide]]	50 (≈ 144 µM)	< 0.8	< 0.8	< 0.8	1.5 (≈ 4.33 µM)	100 (≈ 289 µM)	< 0.8	< 0.8	–	> 100	10.1	3.5	< 0.8
COc1ccc(C2=[N+]([O-])c3cnccc3N3CC(C)(C)CN=C23)cc1OC [Example 21]	–	< 0.8	< 0.8	–	–	–	1.5 (≈ 4.09 µM)	< 0.8	–	–	6.8	2.5	–
Cc1ccc(C2=[N+]([O-])c3cnccc3N3CC(C)(C)CN=C23)cc1 [Example 19, 2,3-Dihydro-2,2-dimethyl-5-(4-methylphenyl)-1H-pyrimido[1,2-a]pyrido[3,4-e]pyrazine 6-oxide]	–	1.5 (≈ 4.68 µM)	1.5 (≈ 4.68 µM)	–	1.5 (≈ 4.68 µM)	–	< 0.8	< 0.8	1.5 (≈ 4.68 µM)	–	4.6	1.5	< 0.8
CCCC1(C)CN=C2C(c3ccccc3)=[N+]([O-])c3cnccc3N2C1 (stereo not drawn) [Example 27, 2,3-Dihydro-2-methyl-5-phenyl-2-propyl-1H-pyrimido[1,2-a]pyrido[3,4-e]pyrazine 6-oxide]	–	1.5 (≈ 4.49 µM)	1.5 (≈ 4.49 µM)	–	–	–	< 0.8	< 0.8	–	–	7.4	2.5	–
[O-][N+]1=C(c2ccccc2)C2=NCC3(CCCCC3)CN2c2ccncc21 [Example 30, Spiro[cyclohexane-1,2'-[2,3]-dihydro-[5]-phenyl-[1H]pyrimido[1,2-a]pyrido[3,4-e]pyrazine [6]-oxide]]	100 (≈ 289 µM)	< 0.8	< 0.8	100 (≈ 289 µM)	6.2 (≈ 17.9 µM)	> 100	< 0.8	< 0.8	12.5 (≈ 36.1 µM)	> 100	–	–	–
CC1CN=C2C(c3ccccc3)=[N+]([O-])c3cnccc3N2C1 (stereo not drawn) [Example 34, 2,3-Dihydro-2-methyl-5-phenyl-1H-pyrimido[1,2-a]pyrido[3,4-e]pyrazine 6-oxide]	–	< 0.8	< 0.8	–	–	–	< 0.8	< 0.8	–	–	9.3	2.7	–
CC1(C)CN=C2C(c3ccc(F)cc3)=[N+]([O-])c3cccnc3N2C1 [Example 31, 2,3-Dihydro-2,2-dimethyl-5-(4-fluorophenyl)-1H-pyrimido[1,2-a]pyrido[3,2-e]pyrazine 6-oxide]	100 (≈ 308 µM)	< 0.8	< 0.8	100 (≈ 308 µM)	3.1 (≈ 9.56 µM)	> 100	< 0.8	< 0.8	12.5 (≈ 38.5 µM)	> 100	3	1	–
CCC1(C)CN=C2C(c3ccccc3)=[N+]([O-])c3cccnc3N2C1 (stereo not drawn) [Example 24, 2,3-Dihydro-2-ethyl-2-methyl-5-phenyl-1H-pyrimido[1,2-a]pyrido[3,2-e]pyrazine 6-oxide]	50 (≈ 156 µM)	< 0.8	< 0.8	100 (≈ 312 µM)	1.5 (≈ 4.68 µM)	100 (≈ 312 µM)	< 0.8	< 0.8	6.2 (≈ 19.4 µM)	100 (≈ 312 µM)	6.8	2.2	–
CC1CN=C2C(c3ccccc3)=[N+]([O-])c3cccnc3N2C1 (stereo not drawn) [Example 32, 2,3-Dihydro-2-methyl-5-phenyl-1H-pyrimido[1,2-a]pyrido[3,2-e]pyrazine 6-oxide]	–	< 0.8	< 0.8	–	< 0.8	–	< 0.8	< 0.8	6.2 (≈ 21.2 µM)	–	3.3	0.95	< 0.8
CCCC1(C)CN=C2C(c3ccccc3)=[N+]([O-])c3cccnc3N2C1 (stereo not drawn) [Example 28, 2,3-Dihydro-2-methyl-5-phenyl-2-propyl-1H-pyrimido[1,2-a]pyrido[3,2-e]pyrazine 6-oxide]	–	< 0.8	< 0.8	–	–	–	< 0.8	< 0.8	–	–	7.4	2.5	–
CC1(C)CN=C2C(c3ccc(F)cc3)=[N+]([O-])c3cnccc3N2C1 [Example 33, 2,3-Dihydro-2,2-dimethyl-5-(4-fluorophenyl)-1H-pyrimido[1,2-a]pyrido[3,4-e]pyrazine 6-oxide]	–	< 0.8	< 0.8	–	–	–	< 0.8	< 0.8	–	–	2.85	0.9	–
CCC1(C)CN=C2C(c3ccccc3)=[N+]([O-])c3cnccc3N2C1 (stereo not drawn) [Example 23, 2,3-Dihydro-2-ethyl-2-methyl-5-phenyl-1H-pyrimido[1,2-a]pyrido[3,4-e]pyrazine 6-oxide]	100 (≈ 312 µM)	< 0.8	< 0.8	100 (≈ 312 µM)	1.5 (≈ 4.68 µM)	> 100	< 0.8	< 0.8	6.2 (≈ 19.4 µM)	> 100	6	1.9	–
